What was measured:
mouse testes = assay: H&E histology of testes after X-ray radiation; type: in vivo; details: X-ray 2.5 Gy then injection, 12 hrs
Description: (§1) Toward this end, ICR mice (3 months old) were injected with 6 mg/kg of Compound 79, Compound 68 or Compound 70, or mice were subjected to X-ray radiation (2.5 Gy) followed by immediately injection of the respective compounds. Control mice were untreated or vehicle treated with or without exposure to X-ray radiation. The testes were removed 12 hrs after treatments and subjected to protein extracts or total RNA preparations for the examination of telomerase activity by TRAP assay, telomerase expression by Western blot and real time PCR. Testes were also taken for immunohistochemical and immunofluorescence analysis with various spermatogenesis markers. Epididymis was also taken for sperm count.

sperm = assay: Sperm head morphology after X-ray radiation; type: in vivo, mouse; details: X-ray 2.5 Gy, single S.C. injection 6 mg/kg, 12 hours
Description: Three-month old mice were irradiated with X-ray (2.5 Gy) and treated with a single S.C. injection of 6 mg/kg of compound 68 or 70. Mice were sacrificed 12 hours later and sperm were removed from the epididymis and stained with eosin. The number of morphologically defective sperm (head morphology) were quantified and presented as a percentage value of the total sperm count (N=6 mice per group) (FIG. 26A). FIG. 26B provides a light micrograph showing healthy and defective sperm head morphology observed. The arrows labeled 1 and 2 point to defective sperm head morphology, and the arrows labeled 3 and 4 point to healthy sperm head morphology

ICR mice = assay: Sperm count from the epididymis, with or without X-ray radiation; type: in vivo, mouse
Description: as §1, with “The testes were removed 12 hrs after treatments and subjected to protein extracts or total RNA preparations for the examination of telomerase activity by TRAP assay, telomerase expression by Western blot and real time PCR.” left out

CREM = CREM expression in X-ray irradiated testis; type: in vivo, mouse; details: X-ray 2.5 Gy then injection, 12 hrs
Description: as §1

telomerase = molecular target: T1, telomerase (Rattus norvegicus, UniProt Q673L6); assay: TRAP assay of telomerase activity in granulosa cells; type: cell-based; details: 50 nM and 200 nM for 6 hours
T1 construct: Protein extracts prepared from these cells served for telomerase activity measurement; endogenous in cells; host or cells: immortalized rat granulosa cells expressing FSH receptor
T1 sequence (Q673L6 whole entry): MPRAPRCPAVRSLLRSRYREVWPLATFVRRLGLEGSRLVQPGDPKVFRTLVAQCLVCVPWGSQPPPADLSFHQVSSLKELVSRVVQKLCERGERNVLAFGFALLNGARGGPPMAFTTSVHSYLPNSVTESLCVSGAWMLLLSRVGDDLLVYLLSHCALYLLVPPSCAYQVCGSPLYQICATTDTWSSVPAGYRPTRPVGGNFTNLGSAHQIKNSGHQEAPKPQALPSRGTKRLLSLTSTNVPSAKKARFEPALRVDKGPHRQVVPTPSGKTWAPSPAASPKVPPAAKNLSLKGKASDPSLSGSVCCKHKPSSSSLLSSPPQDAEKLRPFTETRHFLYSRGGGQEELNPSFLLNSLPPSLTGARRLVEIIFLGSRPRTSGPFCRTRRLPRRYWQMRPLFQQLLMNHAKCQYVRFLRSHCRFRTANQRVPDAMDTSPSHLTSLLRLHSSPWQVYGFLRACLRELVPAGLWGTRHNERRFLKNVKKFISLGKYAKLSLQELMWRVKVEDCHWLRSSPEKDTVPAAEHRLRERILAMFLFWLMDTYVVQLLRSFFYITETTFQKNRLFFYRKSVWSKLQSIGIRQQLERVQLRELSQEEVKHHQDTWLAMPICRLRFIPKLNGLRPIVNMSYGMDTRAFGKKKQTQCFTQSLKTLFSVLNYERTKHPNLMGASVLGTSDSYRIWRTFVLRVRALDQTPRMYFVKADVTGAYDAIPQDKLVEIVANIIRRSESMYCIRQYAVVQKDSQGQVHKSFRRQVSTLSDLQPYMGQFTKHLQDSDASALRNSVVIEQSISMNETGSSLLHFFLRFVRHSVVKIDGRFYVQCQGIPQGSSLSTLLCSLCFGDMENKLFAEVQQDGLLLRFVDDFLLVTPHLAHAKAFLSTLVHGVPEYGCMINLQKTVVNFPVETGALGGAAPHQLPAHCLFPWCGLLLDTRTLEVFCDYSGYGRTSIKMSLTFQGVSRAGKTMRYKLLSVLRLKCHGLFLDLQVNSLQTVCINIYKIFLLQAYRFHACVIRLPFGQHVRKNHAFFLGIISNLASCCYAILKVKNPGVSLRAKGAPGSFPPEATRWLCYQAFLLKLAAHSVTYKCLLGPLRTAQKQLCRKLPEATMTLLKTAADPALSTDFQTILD
Description: (§2) Immortalized rat granulosa cells expressing FSH receptor were treated with either pregnant mare serum gonadotropin (PMSG), or the indicated compounds, or both for 6 hours. Protein extracts prepared from these cells served for telomerase activity measurement using a telomere repeat amplification protocol (TRAP) assay.
(§3) Briefly, protein extract incubated with oligonucleotide, which serves as a template for telomerase (TS), for 45 minutes at 30° C. followed by PCR with reverse primer (ACX) and internal control. PCR products were separated on 4.5% agarose gel. RNA extracts were used for cDNA synthesis and quantitative real time PCR with specific primers to Telomerase reverse transcriptase (TERT), Steroidogenic acute regulatory protein (StAr) and β-actin as a reference gene. To measure progesterone levels secreted by the cells, granulosa cells were cultured with or without 1 IU/mL PMSG and DMSO, Compound 79 50 nM or compound 70 50 nM in the presence of 100 nM dexamethasone. After 24 hours progesterone levels cell-culture medium were determined by radioimmunoassay (RIA). For cell proliferation measurement, 1×10^5 cells were seeded in a 96 wells plate with 1 IU/mL PMSG and DMSO, Compound 79 50 nM or Compound 70 50 nM. After 24 hours cells viability was measured by XTT proliferation assay.

[1] = system: Telomerase reverse transcriptase (TERT); assay: TERT relative mRNA levels by qRT-PCR in granulosa cells; type: cell-based, rat; details: 50 nM and 200 nM for 6 hours
Description: as §2, §3

[2] = system: Steroidogenic acute regulatory protein (StAr); assay: StAr relative mRNA levels by qRT-PCR in granulosa cells; type: cell-based, rat; details: 50 nM for 6 hours
Description: as §2, §3

SMILES | morphology of testicular tissue (H&E) (mouse testes) | number of defective sperm cells (head morphology) (sperm) | sperm count (ICR mice; irradiated mice, 9 and 30 days post irradiation) | sperm cells number from the epididymis (ICR mice; non-irradiated mice, 12 hrs post treatment, compared to DMSO) | CREM expression in testis (CREM) | telomerase activity (TRAP) (telomerase) | TERT relative mRNA levels [1] | expression of StAr [2]
CC(c1cc(Br)c(O)c(Br)c1)(c1cc(Br)c(O)c(Br)c1)c1cc(Br)c(O)c(Br)c1 [Compound 68] | protected the spermatogonia cells layer from the damaging effects of X-ray and the morphology of the testicular tissue remained intact | reduction in the number of defective sperm cells | increased sperm count at 9 and 30 days post irradiation | a significant increase | restored the expression of the spermatogenesis markers |  |  | 
CCOCc1cc(C(C)(c2cc(COCC)c(O)c(COCC)c2)c2cc(COCC)c(O)c(COCC)c2)cc(COCC)c1O [Compound 79] |  |  |  |  |  | increased expression in a dose-dependent fashion | increased expression in a dose-dependent fashion | increased expression of StAr

From patent publication US12576047B2, “Telomerase activating compounds for use in fertility and related applications” (Neuromagen Pharma Ltd, priority 2017, dated 2026)
